Earlier results in US20200254002A1, “COMBINATION THERAPIES FOR TREATING MUSCULAR DYSTROPHY” (SAREPTA THERAPEUTICS, INC., priority 2017, published 2020).
Entries after “also recorded” stand apart in the source; their conditions may differ. Read-outs that look alike come from different tables or passages of the source.

Tests used:
[1] = phase I clinical program in adults
[2] = system: NF-κB p65
[3] = system: Mdx mice
[4] = system: cNF-κB; conditions: in vitro
[5] = system: ryanodine receptor; conditions: patient cells and a mouse model of DMD
[6] = system: exon 53 of dystrophin pre-mRNA; conditions: for Exon skipping in DMD patients: all 25 patients, at least 48 weekly doses
[7] = system: dystrophin protein
[8] = system: dystrophin; conditions: DMD patients
[9] = system: normal human skeletal muscle cells or muscle cells from DMD patients; conditions: RT-PCR and Western blot
[10] = system: human DMD transcript; conditions: hDMD mouse model
[11] = system: immune response; conditions: rat, in vivo
[12] = Part 2/Pl patients, 48-51 weeks
[13] = Part 1 patients, 60-76 weeks dosing
[14] = Part 2 patients, ~48-51 weeks dosing

Compound: CC/C=C\C/C=C\C/C=C\C/C=C\C/C=C\C/C=C\CCC(=O)NCCNC(=O)c1ccccc1O [CAT-1004, N-(2-[(4Z,7Z,10Z,13Z,16Z,19Z)-docosa-4,7,10,13,16,19-hexaenamido]ethyl)-2-hydroxybenzamide]
- Safety and tolerability [1]: safe, well tolerated

Compound: CC/C=C\C/C=C\C/C=C\C/C=C\C/C=C\CCCC(=O)NCCNC(=O)c1ccccc1O [CAT-1041]
- Dystrophic phenotype ([2]; GRMD dog, long-term treatment): improves the phenotype
- Diaphragm function ([2]; dog DMD model): improved diaphragm function
- Exercise endurance ([3]; mdx mice): increased exercise endurance
- Inflammation and fibrosis ([3]; mdx mice): reduced inflammation and fibrosis
- Muscle fibrosis ([3]; mdx mice, long-term studies): reduces muscle fibrosis
- Muscle function ([3]; mdx mice, long-term studies): preserves muscle function
- Skeletal muscle weight ([3]; mdx mice, long-term studies): increases skeletal muscle weight
- Dystrophic phenotype ([3]; mdx mouse, long-term treatment): improves the phenotype
- Diaphragm function ([3]; mouse DMD model): improved diaphragm function
- cNF-κB activation [4]: inhibit cNF-κB activation in vitro

Compound: O=C1CN(/N=C/c2ccc(-c3ccc([N+](=O)[O-])cc3)o2)C(O)=N1 [dantrolene]
- Antisense-mediated exon skipping [5]: enhance antisense-mediated exon skipping

Compound: all-P-ambo-[P,2′,3′-trideoxy-P-(dimethylamino)-2′,3′-imino-2′,3′-seco](2′a[…]5′)(GTTGCCTCCGGTTCTGAAGGTGTTC) 5′-[4-({2-[2-(2-hydroxyethoxy)ethoxy]ethoxy}carbonyl)-N,N-dimethylpiperazine-1-phosphonamidate] [SRP-4053]
- Decrease from Baseline (RT-PCR, patients) ([6]; All patients): 0
- Fold Increase (RT-PCR exon skipping) ([6]; All patients): 7.3
- Increase > 0.1 from Baseline (RT-PCR, patients) ([6]; All patients): 25 (100.0%)
- Increase from Baseline (RT-PCR, patients) ([6]; All patients): 25 (100.0%)
- No Increase > 0.1 from Baseline (RT-PCR, patients) ([6]; All patients): 0
- Unchanged from Baseline (RT-PCR, patients) ([6]; All patients): 0
- Decrease from Baseline (RT-PCR, patients) ([6]; Part 1 patients, 60-76 weeks): 0
- Increase > 0.1 from Baseline (RT-PCR, patients) ([6]; Part 1 patients, 60-76 weeks): 8 (100.0%)
- Increase from Baseline (RT-PCR, patients) ([6]; Part 1 patients, 60-76 weeks): 8 (100.0%)
- No Increase > 0.1 from Baseline (RT-PCR, patients) ([6]; Part 1 patients, 60-76 weeks): 0
- Unchanged from Baseline (RT-PCR, patients) ([6]; Part 1 patients, 60-76 weeks): 0
- Decrease from Baseline (RT-PCR, patients) [6, 12]: 0
- Increase > 0.1 from Baseline (RT-PCR, patients) [6, 12]: 17 (100.0%)
- Increase from Baseline (RT-PCR, patients) [6, 12]: 17 (100.0%)
- No Increase > 0.1 from Baseline (RT-PCR, patients) [6, 12]: 0
- Unchanged from Baseline (RT-PCR, patients) [6, 12]: 0
- Exon skipping in DMD patients [6]: increase over baseline levels in exon skipping
- Exon skipping in DMD patients ([6]; listed as Golodirsen): observed in all patients
- Mean Change from baseline (SD), dystrophin by Western blot ([7]; All patients): 0.92 (1.01)
- On treatment Mean % normal (SD), dystrophin by Western blot ([7]; All patients): 1.02 (1.03) % normal
- Dystrophin protein as measured by Western blot ([7]; DMD patients, over baseline): statistically significant increase over baseline in dystrophin protein
- Mean Change from baseline (SD), dystrophin by Western blot [7, 13]: 1.29 (1.51)
- On treatment Mean % normal (SD), dystrophin by Western blot [7, 13]: 1.40 (1.57) % normal
- Mean Change from baseline (SD), dystrophin by Western blot [7, 14]: 0.75 (0.67)
- On treatment Mean % normal (SD), dystrophin by Western blot [7, 14]: 0.84 (0.64) % normal
- Baseline Mean % normal (SD), dystrophin by Western blot ([7]; All patients): 0.09 (0.07) % normal
- Baseline Mean % normal (SD), dystrophin by Western blot [7, 13]: 0.10 (0.09) % normal
- Baseline Mean % normal (SD), dystrophin by Western blot [7, 14]: 0.09 (0.06) % normal
- Mean fiber intensity, de novo dystrophin ([8]; above baseline): statistically significant increase (p<0.001) above baseline in de novo dystrophin
- Sarcolemmal dystrophin localization ([8]; listed as Golodirsen): correctly localized to the sarcolemma membrane; also recorded: observed in all patients

Compound: eteplirsen
- Exon 51 skipping in vitro [9]: potent inducer of exon 51 skipping
- Exon 51 skipping in vivo [10]: confirmed in vivo
- Effect on the immune response [11]: no adverse effect on the immune response
